Data on 1 compound can be found in US6897319B2, “Useful aroyl pyrrole heteroaryl methanones and methanols” (Ortho-McNeil Pharmaceutical, Inc., priority 2001, dated 2005).

Assay [1] has as its system carrageenan-induced thermal hyperalgesia. Description: Carrageenan Paw Hyperalgesia Test. In kind it is in vivo. Conditions: mouse, orally 30 mg per Kg, 90 minutes following oral dosing. The source says: Procedure for Testing Hyperalgesic Effect
The procedure used to detect the antihyperalgesic activity of a compound of the present invention for which there is a good correlation with human efficacy is the Carrageenan Paw Hyperalgesia Test (as described in Sammons, et al., Brain Research, 2000, 876, 48-54).
Male, CD-1 mice (Charles River Laboratories) weighing 22-30 g each at the time of testing are housed in a climate-controlled, virus free environment for at least 7 days prior to testing. Food and water are available ad libitum up to test time.
Test mice are […] by injecting an irritant (e.g., 0.02 mL of a 1.0% carrageenan solution in 0.9% saline) subcutaneously into the subplantar tissue of one of the hind paws to stimulate an acute inflammatory reaction. The response of the animal following carrageenan injection is subsequently evaluated at a fixed later time and verified to be hyperalgesic relative to a baseline response obtained immediately prior to carrageenan injection.
The mice were dosed orally with either Compound 1 dissolved in a suspension of 20% hydroxypropyl beta cyclodextrin in distilled water or with vehicle alone at a fixed time following carrageenan injection. […] Response latencies were subsequently evaluated at fixed times following oral dosing to assess reversal of hyperalgesia caused by treatment with Compound 1 as compared to vehicle treatment. […]
For orientation: The carrageenan paw model is a standard test of acute inflammation.

Assay [2] deals with maximal electroshock extensor seizure. Description: Mouse maximal electroshock test (MES) anticonvulsant model. In kind it is in vivo. To be noted: po, orally administered, read-out: MES Response ED50. Here is the method:
Procedure for Testing in Mouse Anticonvulsant Model
The activity of the present compounds as anticonvulsant agents was determined using a standard mouse “maximal electroshock test” (MES). In this test, activity was indicated by a block of the […] extensor seizure, as described by Swinyard, et al. (J. Pharmacol. Exptl. Therap., 1952, 106, 319). A more recent description of current anticonvulsant drug screening is given in Swinyard, et al., in Epilepsia, 1978, 19, 409.
The anticonvulsant activity of the instant compounds is shown in Table 5 and was evaluated according to the Swinyard (1952) method. The abbreviations used in the table have the following meanings: mpk refers to the dose orally administered in “mg per Kg;” and, ED50 refers to the “50% Effective Dose” orally administered in mpk. The values marked by an * represent the number of mice protected/number of mice tested; therefore, a value of 3/3 represents that the number of mice protected matched the number of mice tested at the indicated dose.
For orientation: The maximal electroshock test induces tonic seizures with an electrical stimulus.

The term ED50 denotes the dose at which the effect has come halfway, by size or by number of responders.

`Cn1cc(C(=O)c2ccncc2)cc1C(=O)c1ccc(Cl)cc1` [Cpd 1, [5-(4-Chlorobenzoyl)-1-methyl-1H-pyrrol-3-yl]pyridin-4-ylmethanone]: the “% Recovery (reversal of hyperalgesia)” value in assay [1] was 84%. Moreover, the ED50 in assay [2] stood at 157 mg/kg.
